Assays:
CCKA = molecular target: T1, CCKA (Cavia porcellus, UniProt Q63931); assay: CCKA binding assay in guinea-pig pancreas membranes ([125I]-CCK8(S)); conditions: 150 minutes at 21±3°; for CCKA pKi: 0.375 μM PD134,308; for Ki: 0.375 μM PD134,308, read-out: CCKA pKi (converted)
T1 construct: The pancreatata were removed from male guinea-pigs (200-300 g; Dunkin Hartley); from tissue; host or cells: pancreas membranes of male Dunkin Hartley guinea-pigs
T1 sequence (Q63931 1-430): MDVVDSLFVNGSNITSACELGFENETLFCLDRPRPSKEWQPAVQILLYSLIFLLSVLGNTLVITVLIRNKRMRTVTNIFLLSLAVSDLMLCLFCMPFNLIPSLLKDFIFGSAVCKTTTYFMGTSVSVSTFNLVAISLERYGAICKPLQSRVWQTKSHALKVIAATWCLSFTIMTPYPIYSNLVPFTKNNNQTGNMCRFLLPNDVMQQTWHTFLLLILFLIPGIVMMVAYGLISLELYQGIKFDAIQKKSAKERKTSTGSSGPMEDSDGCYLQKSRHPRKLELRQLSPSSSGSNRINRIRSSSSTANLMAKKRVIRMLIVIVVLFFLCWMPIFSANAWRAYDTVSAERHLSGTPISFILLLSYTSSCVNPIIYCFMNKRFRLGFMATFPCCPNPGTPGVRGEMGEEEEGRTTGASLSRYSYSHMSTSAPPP
Description: The compounds of the examples were also tested in a CCKA binding assay as follows:
The pancreatata were removed from male guinea-pigs (200-300 g; Dunkin Hartley) and placed in ice-cold HEPES buffer (pH 7.2 @ 21±3°). The pancreatata were homogenised in 40 ml ice-cold HEPES buffer using a polytron (Brinkmann, PT10, setting 10) 4×1 second. The homogenate was centrifuged at 39,800 g for 15 min at 4°. The supernatant was discarded and the pellet re-suspended using a Teflon-in-glass homogeniser in 20 volumes of fresh buffer and re-centrifuged as above. The final pellet was re-suspended using a Teflon-in-glass homogeniser to a tissue concentration of 1 mg.ml^-1 (original wet weight), and filtered through 500 μm pore-size Nytex mesh.
The membranes (400 μl; containing 0.375 μM PD134,308) are incubated for 150 minutes at 21±3° in a final volume of 0.5 ml with HEPES buffer containing [^125 I]-CCK8 (S)(50 μl; pM) and competing compound. Total and non-specific binding of [^125 I]-CCK8 (S) are defined using 50 μl of buffer and 50 μl of 100 nM L-364,718 respectively. The assay is terminated by rapid filtration through pre-soaked Whatman GF/B filters using a Brandell Cell Harvester. The filters were washed (3×3 ml) with ice-cold 50 mM Tris HCl (pH 7.4 at 4°) and bound radioactivity is determined by counting (1 min) in a gamma counter.

CCKB receptor = molecular target: T2, CCKB receptor (Mus musculus, UniProt P56481); assay: radioligand binding assay at the CCKB receptor in mouse cortical membranes ([125I]-CCK8S); conditions: 150 min at 21±3°; for Ki: read-out: CCKB pKi (converted)
T2 construct: The cortex was dissected, weighed and homogenised in 40 ml ice-cold buffer; from tissue; host or cells: cerebral cortex membranes of male CD1 mice (Charles River)
T2 sequence (P56481 1-453): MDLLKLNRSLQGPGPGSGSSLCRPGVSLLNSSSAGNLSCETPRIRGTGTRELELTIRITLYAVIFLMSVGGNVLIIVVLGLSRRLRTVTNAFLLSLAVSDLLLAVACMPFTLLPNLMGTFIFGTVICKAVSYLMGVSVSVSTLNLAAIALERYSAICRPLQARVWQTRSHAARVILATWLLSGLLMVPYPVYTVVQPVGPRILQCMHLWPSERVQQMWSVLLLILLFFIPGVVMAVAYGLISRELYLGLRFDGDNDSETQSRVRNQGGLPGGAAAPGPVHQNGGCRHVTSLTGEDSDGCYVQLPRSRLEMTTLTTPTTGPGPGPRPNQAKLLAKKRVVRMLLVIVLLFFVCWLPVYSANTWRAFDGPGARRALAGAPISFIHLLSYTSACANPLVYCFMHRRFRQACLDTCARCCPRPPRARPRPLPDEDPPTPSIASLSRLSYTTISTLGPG
Description: The compounds of the examples were tested for binding at the CCKB receptor in mouse cortical membranes by means of a radioligand binding assay. The procedure was as follows:
The whole brains from male mice (CD1 22-25 g; Charles River) were removed and placed in ice-cold buffer (pH7.2 @ 21±3 °) of the following composition (mM); 10 HEPES, 130 NaCl, 4.7 KCl, 5 MgCl2, 1 EDTA and containing 0.25 g.1^-1 bacitracin. The cortex was dissected, weighed and homogenised in 40 ml ice-cold buffer using a Teflon-in-glass homogeniser. The homogenate was centrifuged at 39,800 g for 20 min at @ 4°, the supernatant discarded and the pellet resuspended by homogenisation in fresh buffer. The homogenate was recentrifuged (39,800 g; 20 min @4°) and the final pellet was resuspended in HEPES buffer to give a tissue concentration of 2 mg.ml^-1 (original wet weight).
The membranes ([…]) were incubated for 150 min at 21±3° in a final volume of 0.5 ml with HEPES buffer containing [^125 I]-CCK8S (0.05 ml; 200 pM NEN 2200 Ci.mmol^-1) and competing compound. Total and non-specific binding of [^125 I]-CCK8S were defined using 0.05 ml of buffer and 0.05 ml of […] L-365,260, respectively. The assay was terminated by rapid filtration through pre-soaked Whatman GF/B filters using a Brandell Cell harvester. The filters were washed (3×3 ml) with ice-cold 50 mM Tris-HC1 (pH7.4 @ 4° C.) and bound radioactivity determined by counting (1 min.) in a gamma-counter.

gastrin receptors = molecular target: T3, gastrin receptors (Rattus norvegicus, UniProt P30553); assay: gastrin antagonist activity in an immature rat stomach assay (pentagastrin-stimulated acid secretion); conditions: isolated immature rat stomach, cumulative pentagastrin dose-response curves; for Kb: read-out: Gastrin pKB (converted)
T3 construct: from tissue; host or cells: isolated perfused whole stomach of immature rats (33-50 g, ca. 21 days old)
T3 sequence (P30553 1-452): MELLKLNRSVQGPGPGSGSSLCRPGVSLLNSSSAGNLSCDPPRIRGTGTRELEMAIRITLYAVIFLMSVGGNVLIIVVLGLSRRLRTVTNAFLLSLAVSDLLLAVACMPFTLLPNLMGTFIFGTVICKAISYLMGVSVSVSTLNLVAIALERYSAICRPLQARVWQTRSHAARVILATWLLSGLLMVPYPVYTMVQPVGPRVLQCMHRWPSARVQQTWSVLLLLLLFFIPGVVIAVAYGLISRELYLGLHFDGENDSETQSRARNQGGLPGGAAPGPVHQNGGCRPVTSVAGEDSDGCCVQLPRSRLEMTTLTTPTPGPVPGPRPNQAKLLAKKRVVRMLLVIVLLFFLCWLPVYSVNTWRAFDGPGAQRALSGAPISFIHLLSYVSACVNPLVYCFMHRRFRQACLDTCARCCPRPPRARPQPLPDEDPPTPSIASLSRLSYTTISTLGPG
Description: The compounds of the examples were also tested for gastrin antagonist activity in an immature rat stomach assay. The procedure was as follows:
The oesophagus of immature rats (33-50 g, ca. 21 days old) was ligated at the level of the cardiac sphincter and the duodenal sphincter was cannulated. The stomach was excised and flushed with ca. 1 ml of unbuffered physiological saline solution. The fundus was punctured and cannulated. A further 4-5 ml of unbuffered solution was flushed through the stomach to ensure the preparation was not leaking. The stomach was lowered into a jacketed organ bath containing 40 ml of buffered solution containing 3×10^-8 M 5-methyl-furmethide, maintained at 37° and gassed vigorously with 95% O2 /5% CO2. The stomach was continuously perfused at a rate of 1 ml min^-1 with unbuffered solution gassed with 100% O2 with the perfusate passing over an internally referenced pH-electrode fixed 12 cm above the stomach.
After 120 min of stabilisation the drugs were added directly to the serosal solution in the organ bath and after a further 60 min cumulative pentagastrin dose-response curves were started. Changes in acid secretion were monitored and the curves analysed according to Black et. al., Br. J. Pharmacol., 1985, 86, 581.

| Molecule | Ki (CCKB receptor) [nM] | Kb (gastrin receptors) [nM] | also measured |
| --- | --- | --- | --- |
| (±)-endo-cis-8-(1-adamantylmethylaminocarbonyl)-2-(±)-benzyl-5,6-benzobicyclo[2.2.2]octane-7-carboxylic acid [Example 36] | – | – | CCKA pKi (CCKA): 5.4; CCKB pKi (CCKB receptor): 5.8 |
| C[C@@H](NC(=O)[C@H]1CCCN1C(=O)C1C2CCC(c3ccccc32)C1C(=O)NCC12CC3CC(CC(C3)C1)C2)C(=O)O (stereo partly drawn) [Example 41, cis-exo-7-(2R-(1R-carboxyethylaminocarbonyl)-pyrrolidinocarbonyl)-8-(1-adamantylmethylaminocarbonyl)-2,3-benzobicyclo[2.2.2]octane] | 5010 | – | Ki (CCKA): 7940 nM |
| O=C1CC2c3ccccc3C1C(C(=O)N1CCC[C@@H]1C(=O)O)C2C(=O)NCC12CC3CC(CC(C3)C1)C2 (single isomer, unassigned) [Example 34, endo-cis-7-(2-R-carboxy-pyrrolidinocarbonyl)-8-(1-adamantylmethylaminocarbonyl)-2-oxo-5,6-benzobicyclo[2.2.2]octane] | 6310 | – | Ki (CCKA): 7940 nM |
| endo-cis-7-(2-R-carboxy-pyrrolidinocarbonyl)-8-(1-adamantylmethylaminocarbonyl)-2-oxo-5,6-benzobicyclo[2.2.2]octane [Example 35] | – | – | CCKA pKi (CCKA): 4.8; CCKB pKi (CCKB receptor): 5.0 |
| O=C(NCC12CC3CC(CC(C3)C1)C2)C1C2C=CC(c3ccccc32)C1C(=O)N[C@H](Cc1c[nH]c2ccccc12)C(=O)O (single isomer, unassigned) [Example 15, endo-cis-7-(2-R-(3-indolyl)-1-carboxy-ethylaminocarbonyl)-8-(1-adamantylmethylaminocarbonyl)-5,6-benzobicyclo[2.2.2]oct-2-ene] | 1580 | 3160 | – |
| COC(=O)[C@H](C)NC(=O)C1C2C=CC(c3ccccc32)C1C(=O)NCC12CC3CC(CC(C3)C1)C2 (stereo partly drawn) [Example 7, exo-cis-7-(1-S-methoxycarbonyl-ethylaminocarbonyl)-8-(1-adamantylmethylaminocarbonyl)-5,6-benzobicyclo[2.2.2]oct-2-ene] | 251 | 316 | – |
| O=C(O)c1cc(NC(=O)[C@H](Cc2ccccc2)NC(=O)C2C3C=CC(c4ccccc43)C2C(=O)NCC23CC4CC(CC(C4)C2)C3)cc(C(=O)O)c1 (stereo partly drawn) [Example 60, exo-cis-7-(1S-(3,5-dicarboxyphenylaminocarbonyl)-2-phenyl-ethylaminocarbonyl)-8-(1-adamantylmethylaminocarbonyl)-5,6-benzobicyclo[2.2.2]oct-2-ene] | 316 | 50.1 | – |
| COC(=O)C12CC(c3ccccc31)C(C(=O)NCC13CC4CC(CC(C4)C1)C3)C2C(=O)N1CCC[C@@H]1C(=O)O (mixture of isomers) [Example 56, (±)-1-methoxycarbonyl-endo-cis-6-(2R-carboxypyrrolidinocarbonyl)-7-(1-adamantylmethylaminocarbonyl)-2,3-benzobicyclo[2.2.1]heptane] | – | – | CCKB pKi (CCKB receptor): 5.1; Gastrin pKB (gastrin receptors; 60 min): 5.6 |
| COC(=O)[C@H](C)NC(=O)C1C2CCC(CC2)C1C(=O)NCC12CC3CC(CC(C3)C1)C2 (mixture of isomers) [Example 25, cis-(±)-2-(1-S-Methoxycarbonyl-ethylaminocarbonyl)-3-(1-adamantylmethylaminocarbonyl)-bicyclo[2.2.2]octane] | 7940 | 1000 | – |
| O=C(NCC12CC3CC(CC(C3)C1)C2)C1C2C=CC(c3ccccc32)C1C(=O)N1CCC[C@@H]1C(=O)O (stereo partly drawn) [Example 10, endo-cis-7-(2-R-carboxy-pyrrolidinocarbonyl)-8-(1-adamantylmethylaminocarbonyl)-5,6-benzobicyclo[2.2.2]oct-2-ene] | 2000 | 1580 | – |
| O=C(O)c1cc(NC(=O)[C@H](Cc2ccccc2)NC(=O)C2C3CCC(c4ccccc43)C2C(=O)NCC23CC4CC(CC(C4)C2)C3)cc(C(=O)O)c1 (stereo partly drawn) [Example 61, exo-cis-7-(1S-(3,5-dicarboxyphenylaminocarbonyl)-2-phenyl-ethylaminocarbonyl)-8-(1-adamantylmethylaminocarbonyl)-2,3-benzobicyclo[2.2.2]octane] | 1000 | 251 | – |
| COC(=O)[C@H](C)NC(=O)C1C2C(C)=C(C)C(c3ccccc32)C1C(=O)NCC12CC3CC(CC(C3)C1)C2 (stereo partly drawn) [Example 19, exo-cis-7-(1-S-Methoxycarbonyl-ethylaminocarbonyl)-8-(1-adamantylmethylaminocarbonyl)-2,3-dimethyl-5,6-benzobicyclo[2.2.2]oct-2-ene] | 398 | 1580 | – |
